US20230183237A1, “COMPETITIVE AND NONCOMPETITIVE INHIBITORS OF THE MUSCARINIC ACETYLCHOLINE RECEPTOR M5” (Vanderbilt University, priority 2020, published 2023)
Where two headings read alike, the source gives them in different places.

Molecular target: T1, hM5 (Homo sapiens, UniProt P08912)
T1 construct: expressed in transfected cells
T1 sequence (P08912 1-532): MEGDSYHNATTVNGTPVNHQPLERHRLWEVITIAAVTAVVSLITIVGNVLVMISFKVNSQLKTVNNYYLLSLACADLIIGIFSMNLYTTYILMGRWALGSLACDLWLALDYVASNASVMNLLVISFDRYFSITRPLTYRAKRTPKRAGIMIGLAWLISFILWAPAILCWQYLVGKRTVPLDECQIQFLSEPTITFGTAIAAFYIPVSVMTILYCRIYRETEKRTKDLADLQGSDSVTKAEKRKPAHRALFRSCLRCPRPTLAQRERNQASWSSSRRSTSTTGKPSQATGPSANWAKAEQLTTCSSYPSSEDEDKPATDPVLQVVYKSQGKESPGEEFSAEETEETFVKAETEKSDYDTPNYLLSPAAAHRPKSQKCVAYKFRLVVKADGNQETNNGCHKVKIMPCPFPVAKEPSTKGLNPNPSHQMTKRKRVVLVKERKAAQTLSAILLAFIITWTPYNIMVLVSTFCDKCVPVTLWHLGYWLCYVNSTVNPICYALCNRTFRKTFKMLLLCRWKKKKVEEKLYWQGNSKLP
Experiment: Calcium mobilization concentration-response (IC50 vs EC80 acetylcholine), CHO hM5
Format: cell-based
Conditions: CELL LINE hM5, read-out: IC50
Method: Initial, single point (10 μM) compound characterization was performed in stable Chinese Hamster Ovary (CHO) cell lines constitutively expressing human M5 receptors. These were plated at 15,000 cells per 20 μL per well in Greiner 384-well black-walled, TC-treated, clear-bottomed plates (Fisher) in Ham's F12 medium supplemented with 10% FBS and 20 mM HEPES. Cells were incubated overnight at 37° C. under 5% CO2. The following day, medium was exchanged with assay buffer (Hank's Balanced Salt Solution supplemented with 20 mM HEPES and 2.5 mM Probenecid, pH 7.4) leaving 20 μL of assay buffer in each well. […] The cells were then incubated 50 minutes at 37° C. under 5% CO2. The assay buffer plus dye was then exchanged with fresh assay buffer leaving a volume of 20 μL in each well. Test compounds were diluted into assay buffer to a 2X (20 μM) concentration in 0.2% dimethylsulfoxide (DMSO) in columns 3-22 with matching DMSO concentration in columns 1, 2, 23, and […]; compounds were added to the assay for a final concentration of 10 μM and a final DMSO concentration of 0.1%.
Either an FDSS (Hamamatsu) or Panoptic (WaveFront Biosciences) kinetic imaging plate reader was used for assay execution and measurement of calcium flux. After establishing baseline fluorescence, test compounds (20 μL) were added to the cells using the reader's integrated pipettor and allowed to equilibrate for 140 seconds before addition of the […] concentration of acetylcholine (10 μL) along with vehicle in selected DMSO-only wells in the outer two columns . […] The raw fluorescence data from each well was normalized to the corresponding initial fluorescence reading (static ratio). The maximum fluorescence value following each addition was determined and the minimum value within that same timeframe was subtracted for each well then normalized to the average of the ECffiax maximum-minimum response, providing a % AChmax value for each addition for each well. The single point values represent mean values determined within the ECsu addition timeframe obtained from at least three independent determinations performed in triplicate or greater (error bars represent +/−SEM) unless otherwise specified.
CHO cells stably expressing hM1, hM2/Gqi5, hM3, hM4/Gqi5, hM5, rM1/Gqi5, rM3, rM4/Gqi5, or rM5 were plated in the manner described above. […] FDSS protocols were carried out as described above; the static ratio was calculated and the minimum response subtracted from the maximum response within the timeframe of each addition. This max-min response was then normalized to the maximum acetylcholine response. Calculation of IC50 was performed using the percent maximum acetylcholine response for the EC80 addition through the Vortex and Studies modules of the Dotmatics data management software. Results are stored in the Dotrnatics database and an audit trail of any changes to their analysis is generated. Data shown represent mean values obtained from at least three independent determinations performed in triplicate or greater (error bars represent±SEM) unless otherwise specified.

[1] = calcium mobilization, EC80 acetylcholine addition

Row | SMILES | IC50 [1] [µM] | IC50 (vs EC80 acetylcholine) [µM]
1 | Cc1cc2ncnn2nc1C1CCN(S(=O)(=O)c2ccc3ncsc3c2)CC1 [Compound 185, 6-((4-(7-methyl-[1,2,4]triazolo[1,5-b]pyridazin-6-yl)piperidin-1-yl)sulfonyl)benzo[d]thiazole] | > 10 | 
2 | Cc1nn(C)c(C(F)(F)F)c1S(=O)(=O)N1CCC(c2cn3ncnc3cc2C(F)(F)F)CC1 [Compound 281, 6-(1-((1,3-dimethyl-5-(trifluoromethyl)-1H-pyrazol-4-yl)sulfonyl)piperidin-4-yl)-7-(trifluoromethyl)-[1,2,4]triazolo[1,5-a]pyridine] | 1.4 | 
3 | Cc1sc(C(N)=O)nc1C1=CCN(S(=O)(=O)c2ccc3c(c2)CCO3)CC1 [Compound 203, 4-(1-((2,3-dihydrobenzofuran-5-yl)sulfonyl)-1,2,3,6-tetrahydropyridin-4-yl)-5-methylthiazole-2-carboxamide] | > 10 | 
4 | Cc1cnccc1C1CCN(S(=O)(=O)c2cnn(C)c2C)CC1 [Compound 431, 4-(1-((1,5-dimethyl-1H-pyrazol-4-yl)sulfonyl)piperidin-4-yl)-3-methylpyridine] |  | 0.812
5 | O=S(=O)(c1ccc2ncsc2c1)N1CCC(c2cc(-c3ccco3)n[nH]2)CC1 [Compound 6, 6-((4-(3-(furan-2-yl)-1H-pyrazol-5-yl)piperidin-1-yl)sulfonyl)benzo[d]thiazole] | > 10 | 
6 | [2H]C1([2H])CC(c2cn3ncnc3cc2F)CC([2H])([2H])N1S(=O)(=O)c1cnn2c1CCC2 [Compound 478, 6-(1-((5,6-dihydro-4H-pyrrolo[1,2-b]pyrazol-3-yl)sulfonyl)piperidin-4-yl-2,2,6,6-d4)-7-fluoro-[1,2,4]triazolo[1,5-a]pyridine] |  | 0.02
7 | Cc1cc(N(C)C)ncc1C1CCN(S(=O)(=O)c2cnn(C)c2C)CC1 [Compound 550, 5-(1-((1,5-dimethyl-1H-pyrazol-4-yl)sulfonyl)piperidin-4-yl)-N,N,4-trimethylpyridin-2-amine] |  | 0.009
8 | O=S(=O)(c1cnn2c1CCC2)N1CCC(c2cn3ncnc3cc2C(F)(F)F)CC1 [Compound 272, 6-(1-((5,6-dihydro-4H-pyrrolo[1,2-b]pyrazol-3-yl)sulfonyl)piperidin-4-yl)-7-(trifluoromethyl)-[1,2,4]triazolo[1,5-a]pyridine] | 0.074 | 
9 | O=S(=O)(c1cc2c(cc1F)OCC2)N1CCC(c2ccc3ncnn3c2)CC1 [Compound 61, 6-(1-((6-fluoro-2,3-dihydrobenzofuran-5-yl)sulfonyl)piperidin-4-yl)-[1,2,4]triazolo[1,5-a]pyridine] | > 10 | 
10 | O=S(=O)(c1ccc(Cl)nc1)N1CCC(c2cn3ncnc3cc2C(F)(F)F)CC1 [Compound 112, 6-(1-((6-chloropyridin-3-yl)sulfonyl)piperidin-4-yl)-7-(trifluoromethyl)-[1,2,4]triazolo[1,5-a]pyridine] | > 10 | 
11 | Cc1cc2ncccc2cc1C1CCN(S(=O)(=O)c2cnn(C)c2CC#N)CC1 [Compound 461, 2-(1-methyl-4-((4-(7-methylquinolin-6-yl)piperidin-1-yl)sulfonyl)-1H-pyrazol-5-yl)acetonitrile] |  | 1.28
12 | [2H]C1([2H])CC(c2cn3ncnc3cc2C(F)F)CC([2H])([2H])N1S(=O)(=O)c1cnc(C)o1 [Compound 594, 5-((4-(7-(difluoromethyl)-[1,2,4]triazolo[1,5-a]pyridin-6-yl)piperidin-1-yl-2,2,6,6-d4)sulfonyl)-2-methyloxazole] |  | 0.228
13 | Cc1cc(S(=O)(=O)N2CCC(c3cnc(N(C)C)cc3C)CC2)sn1 [Compound 565, N,N,4-trimethyl-5-(1-((3-methylisothiazol-5-yl)sulfonyl)piperidin-4-yl)pyridin-2-amine] |  | 0.038
14 | [2H]C1([2H])Oc2cc(C)c(C3CCN(S(=O)(=O)c4cnn(C)c4Cl)CC3)cc2OC1([2H])[2H] [Compound 390, 1-((5-chloro-1-methyl-1H-pyrdzol-4-yl)sulfonyl)-4-(7-methyl-2,3-dihydrobenzo[b][1,4]dioxin-6-yl-2,2,3,3-d4)piperidine] | 0.206 | 
15 | Cc1ncc(S(=O)(=O)N2CCC(c3c4c(nn3C)CCCC4)CC2)s1 [Compound 593, 2-methyl-5-((4-(2-methyl-4,5,6,7-tetrahydro-2H-indazol-3-yl)piperidin-1-yl)sulfonyl)thiazole] |  | > 10

Other lines, results leading:

Row | IC50 [1] [µM] | IC50 (vs EC80 acetylcholine) [µM] | SMILES
16 | > 10 |  | Cc1cc2ncnn2cc1C1CCN(S(=O)(=O)c2cc(C(F)(F)F)nn2C)CC1 [Compound 146, 7-methyl-6-(1-((1-methyl-3-(trifluoromethyl)-1H-pyrazol-5-yl)sulfonyl)piperidin-4-yl)-[1,2,4]triazolo[1,5-a]pyridine]
17 |  | 0.042 | Cc1cc2ncnn2cc1C1CCN(S(=O)(=O)c2cn(C)nn2)CC1 [Compound 572, 7-methyl-6-(1-((1-methyl-1H-1,2,3-triazol-4-yl)sulfonyl)piperidin-4-yl)-[1,2,4]triazolo[1,5-a]pyridine]
18 | > 10 |  | Cc1cc2ncnn2cc1C1CCN(S(=O)(=O)c2ccc3c(cnn3C)c2)CC1 [Compound 175, 7-methyl-6-(1-((1-methyl-1H-indazol-5-yl)sulfonyl)piperidin-4-yl)-[1,2,4]triazoto[1,5-a]pyridine]
19 | 1.43 |  | CN1CCOc2cc(C3=CCN(S(=O)(=O)c4cnn(C)c4Cl)CC3)c(Cl)cc21 [Compound 377, 6-chloro-7-(1-((5-chloro-1-methyl-1H-pyrazol-4-yl)sulfonyl)-1,2,3,6-tetrahydropyridin-4-yl)-4-methyl-3,4-dihydro-2H-benzo[b][1,4]oxazine]
20 |  | 0.043 | [2H]C1([2H])CC(c2cn3ncnc3cc2Cl)CC([2H])([2H])N1S(=O)(=O)c1cnn(C)c1CC#N [Compound 621, 2-(4-((4-(7-chloro-[1,2,4]triazolo[1,5-a]pyridin-6-yl)piperidin-1-yl-2,2,6,6-d4)sulfonyl)-1-methyl-1H-pyrazol-5-yl)acetonitrile]
21 |  | 4.51 | Cc1cc2ncnn2cc1C1CCN(S(=O)(=O)c2conc2C)CC1 [Compound 499, 3-methyl-4-((4-(7-methyl-[1,2,4]triazolo[1,5-a]pyridin-6-yl)piperidin-1-yl)sulfonyl)isoxazole]
22 | 0.0061 |  | O=S(=O)(c1cnn2c1CCC2)N1CC=C(c2cn3ncnc3cc2Cl)CC1 [Compound 196, 7-chloro-6-(1-((5,6-dihydro-4H-pyrrolo[1,2-b]pyrazol-3-yl)sulfonyl)-1,2,3,6-tetrahydropyridin-4-yl)-[1,2,4]triazolo[1,5-a]pyridine]
23 |  | > 10 | COC1(c2cn3ncnc3cc2C)CCN(S(=O)(=O)c2cnn(C)c2C)CC1 [Compound 412, 6-(1-((1,5-dimethyl-1H-pyrazol-4-yl)sulfonyl)-4-methoxypiperidin-4-yl)-7-methyl-[1,2,4]triazolo[1,5-a]pyridine]
24 |  | 1.64 | Cc1cc2ncnn2cc1C1=C(C#N)CN(S(=O)(=O)c2cnn(C)c2Cl)CC1 [Compound 469, 1-((5-chloro-1-methyl-1H-pyrazol-4-yl)sulfonyl)-4-(7-methyl-[1,2,4]triazolo[1,5-a]pyridin-6-yl)-1,2,5,6-tetrahydropyridine-3-carbonitrile]
25 |  | > 10 | Cc1c(S(=O)(=O)N2CCC(c3cn4ncnc4cc3C(=O)N(C)C)CC2)cnn1C [Compound 471, 6-(1-((1,5-dimethyl-1H-pyrazol-4-yl)sulfonyl)piperidin-4-yl)-N,N-dimethyl-[1,2,4]triazolo[1,5-a]pyridine-7-carboxamide]
